Here are results for four molecules from PMC11094580 (EFSA Journal, 2024).

Molecules are shown by their SMILES. Like-named read-outs stand apart in the source and are kept apart here.

Data set [1] deals with Wistar rats. In words: In vivo comet assay in liver and duodenum. Conditions: positive control 200 mg/kg bw. Further details: species or system rat.
The subject of data set [2] is Wistar rats. In words: In vivo micronucleus assay in peripheral blood. The arrangement: species or system rat. Conditions: positive control, 10 mg/kg bw, 48 h before sacrifice.
For data set [3] the following is noted: ref Gardana et al. (2007), cited from earlier work.
The subject of another data set is Clostridium orbiscindens. Particulars: ref Schoefer et al. (2003); cited from earlier work.
The subject of data set [4] is Intestinal bacteria isolated from human faeces. Conditions: 5 mg flavonoids in 50 mL broth, 2 days, anaerobic; ref Kim et al. (1998); cited from earlier work.

With `CCOS(C)(=O)=O` [EMS, ethyl methanesulfonate], the “% tail intensity” value is on record as 19.67% with Wistar rats [1] (duodenum) and 18.30% in the data set on Wistar rats [1] (liver).

For the molecule `O=P1(N(CCCl)CCCl)NCCCO1` (stereo not shown) [CPA, cyclophosphamide, reference compound], in the data set with Wistar rats [2], the “% MNPCE frequency” value is listed as 0.93 ± 0.16%.

Turning to `COc1ccc([C@@H]2CC(=O)c3c(O)cc(O)cc3O2)cc1O` [hesperetin, reference compound], the “mean C max (plasma hesperetin)” value in data set [3] (BOJ 150 mL, 51 mg hesperetin) was 0.043 µg/mL; in data set [3] (BOJ 300 mL, 102 mg hesperetin), 0.08 µg/mL.

Regarding `C[C@@H]1O[C@@H](O[C@H]2[C@H](Oc3cc(O)c4c(c3)O[C@H](c3ccc(O)cc3)CC4=O)O[C@H](CO)[C@@H](O)[C@@H]2O)[C@H](O)[C@H](O)[C@H]1O` [naringin, reference compound], the “Results: conversion by C. orbiscindens” value in the data set with Clostridium orbiscindens is on record as “did not convert”. Further, the “Results: bacterial metabolism” value in data set [4] is “metabolised to naringenin at early time”.
